According to patent EP4464708A1, “NEW CONTRAST AGENTS FOR USE IN DIAGNOSTIC IMAGING” (Bayer Aktiengesellschaft, priority 2023, dated 2024):

Experiment: Relaxivity measurements at 1.4 T
Assay type: physicochemical
Details: 1.41 T (60 MHz), 37°C, normalized to Mn
Protocol: T1 and T2 relaxation time were measured at 60 MHz (1.41 T) and 37°C using a Bruker mq60 minispec contrast agent analyzer. Manganese containing chelates were dissolved in different media at and each relaxivity measurement was performed using three different Mn concentrations. Measurement of r1 and r2 relaxivities were performed using concentrations of 0, 0.25, 0.5 and 1mM Mn in water and human plasma containing heparin as anticoagulant. The relaxivities ri (where i=1, 2) were calculated based on the measured relaxation rates Ri in water and plasma: ri = (Ri−Ri(0))/CMn [formula] where Ri(0) represent the relaxation rate of the respective solvent and CMn the concentration of the compound normalized to Manganese. The Manganese concentrations of the investigated solutions were verified by Inductively Coupled Plasma Mass Spectrometry (ICP-MS Agilent 7500a, Waldbronn, Germany). Table 1: Relaxivities of investigated compound in water and human plasma at 1.41 T. All values are measured at 37°C and normalized to Mn and given in L mmol-1 s-1.

r1 (human plasma (heparin as anticoagulant)): 6.4 L mM^-1s^-1
r1 (water): 5.0 L mM^-1s^-1
Compound: O=C(CCC(C(=O)[O-])N1CCOCCN(C(CCC(=O)NC[C@H](O)[C@@H](O)[C@H](O)[C@H](O)CO)C(=O)[O-])Cc2cccc(n2)C1)NC[C@H](O)[C@@H](O)[C@H](O)[C@H](O)CO.[Mn+2] (stereo partly drawn) [Example 2, manganese(^2+) 2-[9-(1-carboxylato-4-oxo-4-{[(2S,3R,4R,5R)-2,3,4,5,6-pentahydroxyhexyl]amino}butyl)-6-oxa-3,9,15-triazabicyclo[9.3.1]pentadeca-1(15),11,13-trien-3-yl]-5-oxo-5-{[(2S,3R,4R,5R)-2,3,4,5,6-pentahydroxyhexyl]amino}pentanoate]
